Test results as given in patent US20240246931A1, “COMPOUNDS AS PD1/PD-L1 INHIBITORS AND METHODS THEREOF” (JUBILANT PRODEL LLC, priority 2021, published 2024).

molecular target: T1, PD-1/PD-L1 interaction (Homo sapiens, UniProt Q9NZQ7); test: PD-1/PD-L1 HTRF binding assay (CisBio kit); details: HTRF PD1/PD-L1 inhibition assay
T1 construct: purchased CisBio 63ADK000CPAPEG
Protocol: PD-L1 Enzyme Assay: Homogenous Time-Resolved Fluorescence (HTRF) Binding Assay
All binding studies were performed using PD-1/PD-L1 Binding Assay Kit from CisBio (Catalog #63ADK000CPAPEG), according to the manufacturer's protocol. The interaction between Tag1-PD-1 and […] was detected by anti-Tag1-Eu^3+ (HTRF donor) and anti-Tag2-XL665 (HTRF acceptor). When the donor and acceptor antibodies were brought to close proximity due to PD-1 and PD-L1 binding, excitation of the donor antibody triggered fluorescent resonance energy transfer (FRET) towards the acceptor antibody, which in turn emitted specifically at 665 nm. This specific signal is positively proportional to PD-1/PD-L1 interaction. The compounds blocking PD-1/PD-L1 interaction will cause a reduction in HTRF signal. The necessary reagents were mixed in the following order: 2 μL compounds (or diluents buffer), 4 μL PD-L1 protein, 4 μL PD-1 protein. After an incubation of 15 minutes, 5 μL of anti-Tag1-Eu^3+ and 5 μL of anti-Tag2-XL665 were added. The plate was sealed and incubated at room temperature for 1 h. The fluorescence emission was read at two different wavelengths (665 nm and 620 nm) on a BMG PheraStar® multi-plate reader.
Results were calculated from the 665 nm and 620 nm fluorescence signal and expressed in HTRF ratio=(665 nm/620 nm)×10^4.
Compounds having IC50<100 nM are designated as “A”; 100-500 nM are designated as “B”; and >500 nM are designated as “C” respectively.

T1 sequence (Q9NZQ7 19-238 limits assumed): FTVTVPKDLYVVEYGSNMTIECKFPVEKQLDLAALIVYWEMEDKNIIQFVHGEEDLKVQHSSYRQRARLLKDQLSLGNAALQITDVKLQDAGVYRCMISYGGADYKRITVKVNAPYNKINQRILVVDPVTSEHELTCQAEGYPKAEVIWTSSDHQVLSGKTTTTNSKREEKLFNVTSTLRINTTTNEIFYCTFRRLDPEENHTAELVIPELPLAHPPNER

| Structure (SMILES) | IC50 [nM] |
| --- | --- |
| Cc1c(COc2cc(OCc3cncc(C#N)c3)c(CN3CC4(CC4)C[C@H]3CO)c3c2CCC3)cccc1-c1ccc(F)cc1 [Example 47, (S)-5-(((7-((4′-fluoro-2-methyl-[1,1′-biphenyl]-3-yl)methoxy)-4-((6-(hydroxymethyl)-5-azaspiro[2.4]heptan-5-yl)methyl)-2,3-dihydro-1H-inden-5-yl)oxy)methyl)nicotinonitrile] | 100 to 500 |
| Cc1c(COc2cc(OCc3cncc(C#N)c3)c(CN3CCC[C@H]3CO)c3c2CCC3)cccc1-c1ccc(F)cc1 [Example 48, (S)-5-(((7-((4′-fluoro-2-methyl-[1,1′-biphenyl]-3-yl)methoxy)-4-((2-(hydroxymethyl)pyrrolidin-1-yl)methyl)-2,3-dihydro-1H-inden-5-yl)oxy)methyl)nicotinonitrile] | 100 to 500 |
| Cc1c(COc2cc(OCc3cncc(C#N)c3)c(C(=O)NC3CCN(C)CC3)c3c2CCC3)cccc1-c1ccccc1 [Example 49, 5-((5-cyanopyridin-3-yl)methoxy)-7-((2-methyl-[1,1′-biphenyl]-3-yl)methoxy)-N-(1-methylpiperidin-4-yl)-2,3-dihydro-1H-indene-4-carboxamide] | < 100 |
| Cc1c(COc2cc(OCc3cncc(C#N)c3)c(C(=O)N3CCC[C@H]3CO)c3c2CCC3)cccc1-c1ccccc1 [Example 50, (S)-5-(((4-(2-(hydroxymethyl)pyrrolidine-1-carbonyl)-7-((2-methyl-[1,1′-biphenyl]-3-yl)methoxy)-2,3-dihydro-1H-inden-5-yl)oxy)methyl)nicotinonitrile] | 100 to 500 |
| Cc1c(COc2cc(OCc3cncc(C#N)c3)c(C(=O)N3CC[C@H](CO)C3)c3c2CCC3)cccc1-c1ccccc1 [Example 51, (S)-5-(((4-(3-(hydroxymethyl)pyrrolidine-1-carbonyl)-7-((2-methyl-[1,1′-biphenyl]-3-yl)methoxy)-2,3-dihydro-1H-inden-5-yl)oxy)methyl)nicotinonitrile] | 100 to 500 |
| CC(=O)NCC1CCCN1Cc1c(OCc2cncc(C#N)c2)cc(OCc2cccc(-c3ccccc3)c2C)c2c1CCC2 (stereo not drawn) [Example 52, N-((1-((5-((5-cyanopyridin-3-yl)methoxy)-7-((2-methyl-[1,1′-biphenyl]-3-yl)methoxy)-2,3-dihydro-1H-inden-4-yl)methyl)pyrrolidin-2-yl)methyl)acetamide] | < 100 |
| Cc1c(COc2cc(OCc3cncc(C#N)c3)c(CN3CCCC3CN)c3c2CCC3)cccc1-c1ccccc1 (stereo not drawn) [Example 53, 5-(((4-((2-(aminomethyl)pyrrolidin-1-yl)methyl)-7-((2-methyl-[1,1′-biphenyl]-3-yl)methoxy)-2,3-dihydro-1H-inden-5-yl)oxy)methyl)nicotinonitrile] | < 100 |
| Cc1c(Br)cccc1COc1cc(OCc2cncc(C#N)c2)c(CN2CCC2CO)c2c1CCC2 (stereo not drawn) [Example 54, 5-(((7-((3-bromo-2-methylbenzyl)oxy)-4-((2-(hydroxymethyl)azetidin-1-yl)methyl)-2,3-dihydro-1H-inden-5-yl)oxy)methyl)nicotinonitrile] | > 500 |
| Cc1c(COc2cc(OCc3cncc(C#N)c3)c(CN3CCC3CO)c3c2CCC3)cccc1-c1ccc(O)cc1 (stereo not drawn) [Example 55, 5-(((7-((4′-hydroxy-2-methyl-[1,1′-biphenyl]-3-yl)methoxy)-4-((2-(hydroxymethyl)azetidin-1-yl)methyl)-2,3-dihydro-1H-inden-5-yl)oxy)methyl)nicotinonitrile] | 100 to 500 |
| Cc1ccc(F)c(-c2cccc(COc3cc(OCc4cncc(C#N)c4)c(CN4CCC4CO)c4c3CCC4)c2C)c1 (stereo not drawn) [Example 56, 5-(((7-((2′-fluoro-2,5′-dimethyl-[1,1′-biphenyl]-3-yl)methoxy)-4-((2-(hydroxymethyl)azetidin-1-yl)methyl)-2,3-dihydro-1H-inden-5-yl)oxy)methyl)nicotinonitrile] | 100 to 500 |

Other lines, results leading:

| IC50 [nM] | Structure (SMILES) |
| --- | --- |
| > 500 | Cc1c(COc2cc(OCc3cncc(C#N)c3)c(CN3CCC3CO)c3c2CCC3)cccc1-c1cn[nH]c1 (stereo not drawn) [Example 57, 5-(((4-((2-(hydroxymethyl)azetidin-1-yl)methyl)-7-((2-methyl-3-(1H-pyrazol-4-yl)benzyl)oxy)-2,3-dihydro-1H-inden-5-yl)oxy)methyl)nicotinonitrile] |
| > 500 | COc1ccc(-c2cccc(COc3cc(OCc4cncc(C#N)c4)c(CN4CCC4CO)c4c3CCC4)c2C)c(C)c1 (stereo not drawn) [Example 58, 5-(((4-((2-(hydroxymethyl)azetidin-1-yl)methyl)-7-((4′-methoxy-2,2′-dimethyl-[1,1′-biphenyl]-3-yl)methoxy)-2,3-dihydro-1H-inden-5-yl)oxy)methyl)nicotinonitrile] |
| > 500 | Cc1c(COc2cc(OCc3cncc(C#N)c3)c(CN3CCC3CO)c3c2CCC3)cccc1-c1cncnc1 (stereo not drawn) [Example 59, 5-(((4-((2-(hydroxymethyl)azetidin-1-yl)methyl)-7-((2-methyl-3-(pyrimidin-5-yl)benzyl)oxy)-2,3-dihydro-1H-inden-5-yl)oxy)methyl)nicotinonitrile] |
| 100 to 500 | Cc1c(COc2cc(OCc3cncc(C#N)c3)c(CN3CCC3CO)c3c2CCC3)cccc1-c1ccccc1C(F)(F)F (stereo not drawn) [Example 60, 5-(((4-((2-(hydroxymethyl)azetidin-1-yl)methyl)-7-((2-methyl-2′-(trifluoromethyl)-[1,1′-biphenyl]-3-yl)methoxy)-2,3-dihydro-1H-inden-5-yl)oxy)methyl)nicotinonitrile] |
| > 500 | Cc1c(COc2cc(OCc3cncc(C#N)c3)c(CN3CCC3CO)c3c2CCC3)cccc1-c1ccc(N2CCOCC2)nc1 (stereo not drawn) [Example 61, 5-(((4-((2-(hydroxymethyl)azetidin-1-yl)methyl)-7-((2-methyl-3-(6-morpholinopyridin-3-yl)benzyl)oxy)-2,3-dihydro-1H-inden-5-yl)oxy)methyl)nicotinonitrile] |
| < 100 | Cc1c(COc2cc(OCc3cncc(C#N)c3)c(CN3CCC3CO)c3c2CCC3)cccc1-c1ccccc1F (stereo not drawn) [Example 62, 5-(((7-((2′-fluoro-2-methyl-[1,1′-biphenyl]-3-yl)methoxy)-4-((2-(hydroxymethyl)azetidin-1-yl)methyl)-2,3-dihydro-1H-inden-5-yl)oxy)methyl)nicotinonitrile] |
| > 500 | COc1ccc(-c2cccc(COc3cc(OCc4cncc(C#N)c4)c(CN4CCC4CO)c4c3CCC4)c2C)cc1 (stereo not drawn) [Example 63, 5-(((4-((2-(hydroxymethyl)azetidin-1-yl)methyl)-7-((4′-methoxy-2-methyl-[1,1′-biphenyl]-3-yl)methoxy)-2,3-dihydro-1H-inden-5-yl)oxy)methyl)nicotinonitrile] |
| < 100 | Cc1c(COc2cc(OCc3cncc(C#N)c3)c(CN3CCC3CO)c3c2CCC3)cccc1-c1cccc(F)c1 (stereo not drawn) [Example 64, 5-(((7-((3′-fluoro-2-methyl-[1,1′-biphenyl]-3-yl)methoxy)-4-((2-(hydroxymethyl)azetidin-1-yl)methyl)-2,3-dihydro-1H-inden-5-yl)oxy)methyl)nicotinonitrile] |
| < 100 | COc1cccc(-c2cccc(COc3cc(OCc4cncc(C#N)c4)c(CN4CCC4CO)c4c3CCC4)c2C)c1 (stereo not drawn) [Example 65, 5-(((4-((2-(hydroxymethyl)azetidin-1-yl)methyl)-7-((3′-methoxy-2-methyl-[1,1′-biphenyl]-3-yl)methoxy)-2,3-dihydro-1H-inden-5-yl)oxy)methyl)nicotinonitrile] |
| > 500 | Cc1c(COc2cc(OCc3cncc(C#N)c3)c(CN3CCC3CO)c3c2CCC3)cccc1-c1ccc(OC(F)(F)F)cc1 (stereo not drawn) [Example 66, 5-(((4-((2-(hydroxymethyl)azetidin-1-yl)methyl)-7-((2-methyl-4′-(trifluoromethoxy)-[1,1′-biphenyl]-3-yl)methoxy)-2,3-dihydro-1H-inden-5-yl)oxy)methyl)nicotinonitrile] |
| < 100 | Cc1c(COc2cc(OCc3cncc(C#N)c3)c(CN3CCC3CO)c3c2CCC3)cccc1-c1cccc(O)c1 (stereo not drawn) [Example 67, 5-(((7-((3′-hydroxy-2-methyl-[1,1′-biphenyl]-3-yl)methoxy)-4-((2-(hydroxymethyl)azetidin-1-yl)methyl)-2,3-dihydro-1H-inden-5-yl)oxy)methyl)nicotinonitrile] |
| > 500 | Cc1c(COc2cc(OCc3cncc(C#N)c3)c(CN3CCC3CO)c3c2CCC3)cccc1-c1cnn(C)c1 (stereo not drawn) [Example 68, 5-(((4-((2-(hydroxymethyl)azetidin-1-yl)methyl)-7-((2-methyl-3-(1-methyl-1H-pyrazol-4-yl)benzyl)oxy)-2,3-dihydro-1H-inden-5-yl)oxy)methyl)nicotinonitrile] |
| > 500 | Cc1c(COc2cc(OCc3cncc(C#N)c3)c(CN3CCC3CO)c3c2CCC3)cccc1-c1cccc2cccnc12 (stereo not drawn) [Example 69, 5-(((4-((2-(hydroxymethyl)azetidin-1-yl)methyl)-7-((2-methyl-3-(quinolin-8-yl)benzyl)oxy)-2,3-dihydro-1H-inden-5-yl)oxy)methyl)nicotinonitrile] |
| > 500 | Cc1c(COc2cc(OCc3cncc(C#N)c3)c(CN3CCC3CO)c3c2CCC3)cccc1-c1ccncc1 (stereo not drawn) [Example 70, 5-(((4-((2-(hydroxymethyl)azetidin-1-yl)methyl)-7-((2-methyl-3-(pyridin-4-yl)benzyl)oxy)-2,3-dihydro-1H-inden-5-yl)oxy)methyl)nicotinonitrile] |
